Measured values as given in PMC10304387, “In Vitro and In Silico Evaluation of Anticholinesterase and Antidiabetic Effects of Furanolabdanes and Other Constituents from Graptophyllum pictum (Linn.) Griffith” (Molecules, 2023).
Converted amounts (≈) assume the structure as drawn. Where two headings read alike, the source gives them in different places.

Key:
[1] = molecular target: T1, acetylcholinesterase (AChE) (Electrophorus electricus, UniProt O42275); assay: biochemical; settings: for inhibition at 100 µg/mL: read-out: percentage inhibition of AChE, at 100 µg/mL
α-amylase = molecular target: T2, α-amylase (Sus scrofa, UniProt P00690); assay: α-amylase inhibition (starch–iodine method); settings: for inhibition at 100 µg/mL: read-out: percentage inhibition of α-amylase
T2 sequence (P00690 16-511): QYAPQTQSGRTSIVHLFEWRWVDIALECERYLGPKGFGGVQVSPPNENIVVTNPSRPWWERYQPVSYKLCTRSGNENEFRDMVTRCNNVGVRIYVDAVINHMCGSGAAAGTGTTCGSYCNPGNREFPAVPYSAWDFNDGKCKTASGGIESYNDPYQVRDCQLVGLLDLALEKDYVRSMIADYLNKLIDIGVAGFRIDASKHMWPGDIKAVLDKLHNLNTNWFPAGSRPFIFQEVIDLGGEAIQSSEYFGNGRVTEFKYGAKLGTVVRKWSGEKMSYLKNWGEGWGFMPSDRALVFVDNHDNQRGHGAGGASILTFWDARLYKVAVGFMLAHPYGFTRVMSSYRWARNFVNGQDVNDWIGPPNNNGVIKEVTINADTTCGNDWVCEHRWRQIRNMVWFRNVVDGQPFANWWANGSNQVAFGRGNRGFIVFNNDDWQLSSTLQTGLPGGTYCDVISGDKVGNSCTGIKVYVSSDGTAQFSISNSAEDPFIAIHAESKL
Protocol: The inhibition of α-amylase was determined using starch–iodine method with few modifications [64, 65]. Next, 50 µL of α-amylase from porcine pancreas in pH 6.9 phosphate buffer prepared with 6 mM NaCl and 25 µL of sample solutions was mixed in a 96-well microplate. The mixture was pre-incubated for 10 min at 37 °C. Next, 50 µL of starch solution (0.05%) was added and incubated for 10 min at 37 °C. Following incubation, the reaction was completed by adding HCl (0.1 M, 25 µL) and Lugol (100 µL) solutions, and the absorbance was recorded at 630 nm using a Multiskan Go microplate reader spectrophotometer (Thermo Fischer Scientific, Waltham, MA, USA).

[2] = molecular target: butyrylcholinesterase (BChE) (Equus caballus, UniProt P81908); assay: biochemical; settings: for inhibition at 100 µg/mL: read-out: percentage inhibition of BChE
Protocol: The anticholinesterase activity of the extracts and compounds was determined spectrophotometrically via the acetylcholinesterase (AChE) and butyrylcholinesterase (BChE) enzyme inhibition assay method described by Ellman with minor modifications [62, 63]. AChE and BChE from electric eel and horse serum, respectively, were used. The substrates of the reactions were acetylthiocholine iodide and butyrylthiocholine chloride. The activity of the cholinesterase was monitored using DTNB (5,5′-Dithio-bis(2-nitrobenzoic) acid). […] A Multiskan Go microplate reader spectrophotometer (Thermo Fischer Scientific, Waltham, MA, USA) was used to read optical densities.

α-glucosidase = α-glucosidase inhibitory activity (PNPG substrate); parameters: IC50 ± SEM (α-glucosidase): unit not given beside the values; settings: for IC50 α-Glucosidase: mean ± SEM of three measurements, highest test concentration 100 µg/mL; for IC50 ± SEM (α-glucosidase): Table 2 prints no unit, repeats Table 1 values; for percentage inhibition of α-glucosidase: at 100 µg/mL
[3] = molecular target: T1, acetylcholinesterase (AChE); settings: read-out: IC50 ± SEM (Acetylcholinesterase); Table 2 prints no unit; repeats Table 1 values

T1 sequence (O42275 24-633): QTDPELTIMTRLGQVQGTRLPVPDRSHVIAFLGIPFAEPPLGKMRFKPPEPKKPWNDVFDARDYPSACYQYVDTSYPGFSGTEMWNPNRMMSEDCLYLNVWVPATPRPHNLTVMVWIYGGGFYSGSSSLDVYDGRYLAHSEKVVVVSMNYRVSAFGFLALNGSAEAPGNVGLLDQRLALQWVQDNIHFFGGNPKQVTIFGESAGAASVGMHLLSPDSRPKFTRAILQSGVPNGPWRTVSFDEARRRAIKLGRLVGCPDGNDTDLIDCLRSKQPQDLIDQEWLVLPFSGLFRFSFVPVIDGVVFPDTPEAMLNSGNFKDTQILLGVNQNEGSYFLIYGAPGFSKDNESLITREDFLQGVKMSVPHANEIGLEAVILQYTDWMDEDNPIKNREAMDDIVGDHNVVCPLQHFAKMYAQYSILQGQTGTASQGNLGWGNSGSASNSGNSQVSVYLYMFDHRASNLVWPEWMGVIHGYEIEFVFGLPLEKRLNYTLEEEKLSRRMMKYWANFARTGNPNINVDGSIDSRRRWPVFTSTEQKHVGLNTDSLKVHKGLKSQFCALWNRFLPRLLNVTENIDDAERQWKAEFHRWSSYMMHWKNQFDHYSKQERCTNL
Chain of butyrylcholinesterase (BChE) (P81908 whole entry): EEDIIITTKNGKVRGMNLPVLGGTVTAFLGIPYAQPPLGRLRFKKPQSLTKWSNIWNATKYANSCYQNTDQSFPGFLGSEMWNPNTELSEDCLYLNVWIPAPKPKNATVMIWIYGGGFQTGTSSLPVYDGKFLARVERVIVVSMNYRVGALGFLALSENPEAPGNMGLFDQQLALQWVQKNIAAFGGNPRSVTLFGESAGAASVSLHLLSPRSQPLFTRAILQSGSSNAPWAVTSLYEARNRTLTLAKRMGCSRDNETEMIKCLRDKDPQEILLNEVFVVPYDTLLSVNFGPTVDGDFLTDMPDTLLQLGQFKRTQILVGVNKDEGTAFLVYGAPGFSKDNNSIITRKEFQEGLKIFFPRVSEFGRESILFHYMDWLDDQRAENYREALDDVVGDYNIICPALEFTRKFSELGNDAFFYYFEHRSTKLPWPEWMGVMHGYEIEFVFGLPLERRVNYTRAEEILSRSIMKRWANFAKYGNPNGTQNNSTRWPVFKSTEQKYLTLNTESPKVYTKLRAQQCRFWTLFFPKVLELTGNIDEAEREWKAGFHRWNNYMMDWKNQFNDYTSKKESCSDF

Compound	IC50 [1]	inhibition at 100 µg/mL [1]	IC50 (α-amylase)	IC50 [2]	IC50 α-Glucosidase (α-glucosidase)	inhibition at 100 µg/mL (α-amylase)	IC50 [3]	inhibition at 100 µg/mL [2]	IC50 ± SEM (α-glucosidase) (α-glucosidase)	percentage inhibition of α-glucosidase (α-glucosidase)
CC[C@H](CC[C@@H](C)[C@H]1CC[C@H]2[C@@H]3CC=C4C[C@@H](O[C@@H]5O[C@H](CO)[C@@H](O)[C@H](O)[C@H]5O)CC[C@]4(C)[C@H]3CC[C@]12C)C(C)C [β-Sitosterol glucoside, 3β-O-D-glucopyranosyl-β-sitosterol]	> 173 µM	30.45 ± 0.23%	> 173 µM	> 173 µM	>100 µg/mL					
CC1=C[C@H]2OC3OC(=O)[C@@]4(C)CCC[C@@]3([C@@H]24)[C@H]1CC(=O)c1ccoc1 [Hypopurin B]	> 292 µM	24.8 ± 0.33%	203 µM	196 µM	71.41 ± 0.98 µg/mL (≈ 209 µM)	56.68 ± 0.24%	> 292 µM	61.8 ± 1.15%	71.41 ± 0.98	51.95 ± 0.63%
CC1=C[C@H]2OC(=O)[C@@]3(C)CCC[C@@](C)([C@@H]23)[C@H]1CC(=O)c1ccoc1 [Hypopurin A]	> 304 µM	40.2 ± 0.75%	185 µM	177 µM	99.25 ± 0.96 µg/mL (≈ 302 µM)	65.8 ± 0.84%	> 304 µM	64.8 ± 0.93%	99.25 ± 0.96	50.13 ± 0.81%
C[C@H]1O[C@H](O[C@H]2[C@H](O)[C@@H](O)[C@@H](O[C@H]3[C@H](O)[C@@H](O)C(O)O[C@@H]3CO)O[C@@H]2CO)[C@H](O)[C@@H](O)[C@@H]1N[C@H]1C=C(CO)[C@@H](O)[C@H](O)[C@H]1O (stereo partly drawn) [Acarbose, acarbose, reference compound]						75.84 ± 0.52%				51.35 ± 0.65%
COc1ccc2c3c1O[C@H]1C[C@@H](O)C=C[C@@]31CCN(C)C2 [Galantamine, galantamine, reference compound]								73.85 ± 0.3%		
CC1=CC2OC3OCC4(CCCC3(C)C24)C1CC(=O)c1ccoc1 (stereo not drawn) [Hypopurin E]	> 304 µM	20.4 ± 0.56%	225 µM	265 µM	76.33 ± 1.10 µg/mL (≈ 232 µM)	53.9 ± 0.52%	> 304 µM	52.8 ± 1.07%	76.33 ± 1.10	54.79 ± 0.85%
CC[C@H](/C=C/[C@@H](C)[C@H]1CC[C@H]2[C@@H]3CC=C4C[C@@H](O[C@@H]5O[C@H](CO)[C@@H](O)[C@H](O)[C@H]5O)CC[C@]4(C)[C@H]3CC[C@]12C)C(C)C [Stigmasterol glucoside, Stigmasterol 3-O-β-D-glucopyranoside]	> 174 µM	25.2 ± 0.94%	> 174 µM	> 174 µM	>100 µg/mL					
C=C(C)[C@@H]1CC[C@]2(C)CC[C@]3(C)[C@H](CC[C@@H]4[C@@]5(C)CC[C@H](O)C(C)(C)[C@@H]5CC[C@]43C)[C@@H]12 [Lupeol]	> 234 µM		> 234 µM	> 234 µM	69.75 ± 0.42 µg/mL (≈ 163 µM)					60.91 ± 0.76%
